Among the test systems are NCI-H23; A498; SR; OVCAR-3; OVCAR-5; HCT-15; SNB-19; IGROV-1; SF-268; SNB-75; SF-539; UO-31; EKVX; RPMI-8226; SK-MEL-5; COLO 205; MCF7; PC-3; T47D.
Holding throughout (experiment): NCI anticancer screen, dose series, 48 h

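Growth conditions: 96-well plates. Treatment: test compound, 48 hours, 5 concentrations. Analysis: linear interpolation between bracketing concentrations; unreached endpoints set to highest concentration. GI50 is the concentration that inhibits growth by half.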 Activity calls are given as the source filed them. Cut-off read from the data, not from the text of the source: active = GI50 up to about 1.1 µM and inactive = higher.

Take `COc1ccc(COC2CC(OC)OC(C)C2OC(=O)c2ccccc2)cc1` (stereo not given): the GI50 is 28.4 µM (inactive) in the experiment on NCI-H23; 61.5 µM (inactive) in the experiment with A498; 19 µM (inactive) in the experiment with SR; 31.9 µM (inactive) with OVCAR-3; 30.2 µM (inactive) with OVCAR-5; 17.8 µM with HCT-15. The GI50 with SNB-19 is > 64.9 µM (inactive); with IGROV-1, 90.4 µM (inactive); in the experiment with SF-268, 39.8 µM (inactive); in the experiment on SNB-75 it was 38.3 µM (inactive); with SF-539, 54.1 µM (inactive); in the experiment on UO-31, 22.7 µM (inactive). Also, the GI50 was 70.1 µM (inactive) in the experiment on EKVX, 18.5 µM (inactive) with RPMI-8226, 17 µM (inactive) in the experiment with SK-MEL-5 and 34.6 µM (inactive) in the experiment on COLO 205.

As for `N#C/C(C(=O)Nc1ccccc1)=C(/N)N1CCCCC1`, the GI50 with NCI-H23 was > 100 µM (inactive); in the experiment with SR, > 100 µM (inactive); in the experiment on OVCAR-3, > 100 µM (inactive); in the experiment on OVCAR-5 it was > 100 µM (inactive); with MCF7 it was > 100 µM (inactive); in the experiment on HCT-15, > 100 µM. Besides, the GI50 was > 100 µM (inactive) in the experiment on SNB-19; 91 µM (inactive) in the experiment on IGROV-1; > 100 µM (inactive) in the experiment with SNB-75; > 100 µM (inactive) with SF-539; > 100 µM (inactive) in the experiment on PC-3; 67.3 µM (inactive) with UO-31. For the same compound, the GI50 in the experiment with EKVX is 98.4 µM (inactive); with RPMI-8226, > 100 µM (inactive); in the experiment with SK-MEL-5, > 100 µM (inactive); in the experiment on T47D, > 100 µM (inactive); with COLO 205 it was > 100 µM (inactive).

For the compound `C=C(CCCCC)CN1CCCC1C(C)=O` (stereo not given), the GI50 was 17.4 µM (inactive) with NCI-H23; 35 µM (inactive) in the experiment on A498; 14.9 µM (inactive) in the experiment with SR; 27.9 µM (inactive) in the experiment on OVCAR-3; 22.2 µM (inactive) in the experiment on OVCAR-5; 31.6 µM in the experiment with HCT-15. Further, the GI50 was > 62.1 µM (inactive) in the experiment with SNB-19; 33.2 µM (inactive) in the experiment with IGROV-1; 42.3 µM (inactive) in the experiment with SF-268; 24.7 µM (inactive) with SNB-75; 35.6 µM (inactive) in the experiment with SF-539; 31.4 µM (inactive) with UO-31. Further, the GI50 is 35 µM (inactive) in the experiment with EKVX, 13.1 µM (inactive) with RPMI-8226, 17.9 µM (inactive) in the experiment with SK-MEL-5 and 17.1 µM (inactive) in the experiment on COLO 205.

With `Cc1ccccc1NC(=O)Cc1csc2[n+]1C(=O)/C(=C/c1ccc([N+](=O)[O-])cc1)S2`, the GI50 in the experiment with NCI-H23 was 23.9 µM (inactive); in the experiment on OVCAR-3 it was 31.2 µM (inactive); with OVCAR-5, 37.8 µM (inactive); with MCF7, 42.9 µM (inactive); with HCT-15, 24.3 µM; in the experiment on SNB-19, 26.4 µM (inactive). In addition, the GI50 is 25.7 µM (inactive) with IGROV-1; 19.3 µM (inactive) in the experiment on SNB-75; 29 µM (inactive) in the experiment with SF-539; 26.8 µM (inactive) with PC-3; 18.4 µM (inactive) with UO-31; 22.7 µM (inactive) with EKVX. In addition, the GI50 was 27.4 µM (inactive) with SK-MEL-5, 29.2 µM (inactive) with T47D and 36 µM (inactive) in the experiment on COLO 205.

For `CC1=CCP(C(F)(F)F)P(C(F)(F)F)C1` (stereo not given), the GI50 was > 100 µM (inactive) in the experiment on NCI-H23; > 100 µM (inactive) in the experiment on A498; > 100 µM (inactive) with SR; > 100 µM (inactive) with OVCAR-3; > 100 µM (inactive) in the experiment with OVCAR-5; > 100 µM in the experiment with HCT-15. In addition, the GI50 in the experiment with SNB-19, in the experiment on IGROV-1, in the experiment on SF-268, with SNB-75, in the experiment with SF-539 and in the experiment with UO-31 was > 100 µM (inactive) throughout. Further, the GI50 in the experiment with EKVX, in the experiment on RPMI-8226, in the experiment with SK-MEL-5 and in the experiment on COLO 205 was > 100 µM (inactive) in each case.

For `N#C/N=C(/N)NCN/C(N)=N\C#N`, the GI50 in the experiment with NCI-H23 is > 100 µM (inactive); in the experiment on A498 it was > 100 µM (inactive); in the experiment with SR, 27.1 µM (inactive); in the experiment on OVCAR-3 it was > 100 µM (inactive); in the experiment with OVCAR-5 it was > 100 µM (inactive); in the experiment with HCT-15 it was 22.3 µM. Besides, the GI50 in the experiment with SNB-19, with IGROV-1, with SF-268, in the experiment on SNB-75, with SF-539 and with UO-31 was > 100 µM (inactive) in each case. The GI50 in the experiment with EKVX was > 100 µM (inactive); in the experiment with RPMI-8226, > 100 µM (inactive); with SK-MEL-5 it was > 100 µM (inactive); in the experiment on COLO 205, 64.6 µM (inactive).

In the case of `O=C(O)CCCCCO`, the GI50 in the experiment on NCI-H23 is > 100 µM (inactive); in the experiment with A498, > 100 µM (inactive); in the experiment with SR, > 100 µM (inactive); with OVCAR-3 it was > 100 µM (inactive); with OVCAR-5, > 100 µM (inactive); in the experiment on HCT-15, > 100 µM. The GI50 with SNB-19, in the experiment with IGROV-1, in the experiment with SF-268, in the experiment on SNB-75, in the experiment with SF-539 and in the experiment with UO-31 was > 100 µM (inactive) throughout. For the same compound, the GI50 in the experiment on EKVX, in the experiment on RPMI-8226, with SK-MEL-5 and with COLO 205 was > 100 µM (inactive) throughout.

With `CCNC(=O)NNc1ncnc2c1c(-c1ccc(Cl)cc1)cn2-c1ccc(C)cc1`, the GI50 in the experiment with NCI-H23 is 24.6 µM (inactive); in the experiment on A498, 15.7 µM (inactive); with SR, 20.2 µM (inactive); in the experiment on OVCAR-3, 16.7 µM (inactive); in the experiment on OVCAR-5 it was 18 µM (inactive); in the experiment with HCT-15 it was 20.5 µM. In addition, the GI50 is 18.2 µM (inactive) with SNB-19; 20.5 µM (inactive) in the experiment on IGROV-1; 19 µM (inactive) in the experiment on SF-268; 16.7 µM (inactive) in the experiment with SNB-75; 16.7 µM (inactive) in the experiment on SF-539; 17.7 µM (inactive) in the experiment on PC-3. Also, the GI50 is 14.2 µM (inactive) in the experiment on UO-31; 20.2 µM (inactive) in the experiment with EKVX; 14.7 µM (inactive) in the experiment with SK-MEL-5; 14.6 µM (inactive) in the experiment on T47D; 15.9 µM (inactive) in the experiment with COLO 205.

Turning to `COc1ccc(O)cc1` [MEQUINOL], the GI50 in the experiment on NCI-H23 is > 100 µM (inactive); in the experiment with A498, > 100 µM (inactive); with SR it was 89.7 µM (inactive); in the experiment on OVCAR-3, 44.8 µM (inactive); in the experiment on OVCAR-5, 35.4 µM (inactive); with HCT-15, 24.5 µM. For the same compound, the GI50 in the experiment on SNB-19 was > 100 µM (inactive); in the experiment with IGROV-1 it was > 100 µM (inactive); in the experiment on SF-268, 55 µM (inactive); in the experiment with SNB-75, > 100 µM (inactive); in the experiment with SF-539, 47.4 µM (inactive); in the experiment on UO-31 it was 57.4 µM (inactive). For the same compound, the GI50 in the experiment on EKVX is > 100 µM (inactive); with RPMI-8226 it was > 100 µM (inactive); with SK-MEL-5 it was 42.8 µM (inactive); in the experiment on COLO 205, > 100 µM (inactive).

The record behind these values is ChEMBL document CHEMBL1201862, “PubChem BioAssay data set” (2004).
